# Like-named read-outs stand apart in the source and are kept apart here.
# Experiment: Kinetics of T3 absorption after oral dosing in rats; total serum T3 by ELISA
# Format: in vivo, Sprague-Dawley rats
# Details: for Peak of Delta Curve: oral solution; for Peak of Delta Curve / Deltamax / delta AUC / Tmax: serum TT3; for Percent T3 sodium (AUC 0-24) / Percent T3 sodium (Deltamax) / Percent T3 sodium (Peak of Delta Curve) / Percent T3 sodium (Tmax) / AUC* (0-24) / Deltamax / delta AUC / Tmax: oral; for AUC* (0-24): from mean delta TT3 curve above 0 hour value
# Protocol: Defined μg/kg doses were delivered as oral solutions in 0.5% sodium bicarbonate buffer. Rats were dosed immediately following 0 hour serum collection. Serum was collected from rats at two, four, six, nine, 12 and 24 hours after dosing. Total serum T3 concentrations were determined by ELISA using a commercially available kit (Total Triiodothyronine (total T3) ELISA KIT, product #1700, ALPHA DIAGNOSTIC™, San Antonio, Tex.).
# [1] = Example 1, T3 sodium 12 μg/kg vs T4 sodium 162 plus T3 sodium 12 μg/kg (13.5:1)
# [2] = Example 2, T3 sodium 6 μg/kg vs T4 sodium 54 plus T3 sodium 6 μg/kg (9:1)
# [3] = Example 3, T3 sodium 4 μg/kg vs T4 sodium 16 plus T3 sodium 4 μg/kg (4:1)
# [4] = Example 4, T3 sodium 4 μg/kg vs T4 sodium 4 plus T3 sodium 4 μg/kg (1:1)
# [5] = Example 5, T3 sodium 15 μg/kg vs T4 sodium 6 plus T3 sodium 15 μg/kg (0.4:1)
# [6] = Example 6, T3 sodium 15 μg/kg vs T4 sodium 1.5 plus T3 sodium 15 μg/kg (0.1:1)
smiles,measurement,setting,value
"N[C@@H](Cc1cc(I)c(Oc2ccc(O)c(I)c2)c(I)c1)C(=O)O [T3 sodium, liothyronine sodium]",Peak of Delta Curve,"Example 1, T3 sodium 12 μg/kg alone vs T4 sodium 162 μg/kg plus T3 sodium 12 μg/kg (T4:T3 13.5:1)",142 ng/dL
same,Percent T3 sodium (AUC 0-24),[1],100%
same,Percent T3 sodium (Deltamax),[1],100%
same,Percent T3 sodium (Peak of Delta Curve),[1],100%
same,Percent T3 sodium (Tmax),[1],100%
same,AUC* (0-24),[1],"1,469 ng/dLh"
same,Deltamax,[1],156 ng/dL
same,delta AUC,[1],"1,471 ng/dL·hr"
same,Peak of Delta Curve,"Example 2, T3 sodium 6 μg/kg alone vs T4 sodium 54 μg/kg plus T3 sodium 6 μg/kg (T4:T3 9:1)",232 ng/dL
same,Percent T3 sodium (AUC 0-24),[2],100%
same,Percent T3 sodium (Deltamax),[2],100%
same,Percent T3 sodium (Peak of Delta Curve),[2],100%
same,Percent T3 sodium (Tmax),[2],100%
same,AUC* (0-24),[2],"2,212 ng/dLh"
same,Deltamax,[2],232 ng/dL
same,delta AUC,[2],"2,384 ng/dL·hr"
same,Peak of Delta Curve,"Example 3, T3 sodium 4 μg/kg alone vs T4 sodium 16 μg/kg plus T3 sodium 4 μg/kg (T4:T3 4:1)",65 ng/dL
same,Percent T3 sodium (AUC 0-24),[3],100%
same,Percent T3 sodium (Deltamax),[3],100%
same,Percent T3 sodium (Peak of Delta Curve),[3],100%
same,Percent T3 sodium (Tmax),[3],100%
same,AUC* (0-24),[3],"1,193 ng/dLh"
same,Deltamax,[3],69 ng/dL
same,delta AUC,[3],"1,193 ng/dL·hr"
same,Peak of Delta Curve,"Example 4, T3 sodium 4 μg/kg alone vs T4 sodium 4 μg/kg plus T3 sodium 4 μg/kg (T4:T3 1:1)",65 ng/dL
same,Percent T3 sodium (AUC 0-24),[4],100%
same,Percent T3 sodium (Deltamax),[4],100%
same,Percent T3 sodium (Peak of Delta Curve),[4],100%
same,Percent T3 sodium (Tmax),[4],100%
same,AUC* (0-24),[4],"1,193 ng/dLh"
same,Deltamax,[4],69 ng/dL
same,Tmax,[4],2.4 h
same,delta AUC,[4],"1,193 ng/dL·hr"
same,Peak of Delta Curve,"Example 5, T3 sodium 15 μg/kg alone vs T4 sodium 6 μg/kg plus T3 sodium 15 μg/kg (T4:T3 0.4:1)",167 ng/dL
same,Percent T3 sodium (AUC 0-24),[5],100%
same,Percent T3 sodium (Deltamax),[5],100%
same,Percent T3 sodium (Peak of Delta Curve),[5],100%
same,Percent T3 sodium (Tmax),[5],100%
same,AUC* (0-24),[5],"1,732 ng/dLh"
same,Deltamax,[5],170 ng/dL
same,delta AUC,[5],"1,732 ng/dL·hr"
same,Peak of Delta Curve,"Example 6, T3 sodium 15 μg/kg alone vs T4 sodium 1.5 μg/kg plus T3 sodium 15 μg/kg (T4:T3 0.1:1)",138 ng/dL
same,Percent T3 sodium (AUC 0-24),[6],100%
same,Percent T3 sodium (Deltamax),[6],100%
same,Percent T3 sodium (Peak of Delta Curve),[6],100%
same,Percent T3 sodium (Tmax),[6],100%
same,AUC* (0-24),[6],"1,762 ng/dLh"
same,Deltamax,[6],146 ng/dL
same,delta AUC,[6],"1,762 ng/dL·hr"
same,Tmax,"Sprague-Dawley, rat, 15 ug/kg, Example 6, T3 sodium 15 μg/kg vs T4 sodium 1.5 plus T3 sodium 15 μg/kg (0.1:1), read-out: Tmax",5.6 h
same,Tmax,"Sprague-Dawley, rat, Example 1, T3 sodium 12 μg/kg vs T4 sodium 162 plus T3 sodium 12 μg/kg (13.5:1), read-out: Tmax",5.2 h
same,Tmax,"Sprague-Dawley, rat, Example 2, T3 sodium 6 μg/kg vs T4 sodium 54 plus T3 sodium 6 μg/kg (9:1), read-out: Tmax",2 h
same,Tmax,"Sprague-Dawley, rat, Example 3, T3 sodium 4 μg/kg vs T4 sodium 16 plus T3 sodium 4 μg/kg (4:1), read-out: Tmax",2.4 h
same,Tmax,"Sprague-Dawley, rat, Example 5, T3 sodium 15 μg/kg vs T4 sodium 6 plus T3 sodium 15 μg/kg (0.4:1), read-out: Tmax",4.6 h

# Reference: patent US20040152783A1, “Controlled absorption of admixed thyroid hormone formulations” (priority 2002, published 2004)
